PubChem BioAssay (NCI)
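Following 48 hours of exposure in 96-well plates, responses at five concentrations were used to interpolate endpoints linearly. The concentration for 50% growth inhibition is given as GI50. TGI marks complete inhibition of growth.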

Assays:
Assay in all cases: DTP human tumour cell line panel, 48 h
MDA-MB-468 breast = test system: MDA-MB-468 breast
MDA-MB-231 breast = test system: MDA-MB-231 breast
SNB-19 CNS = test system: SNB-19 CNS
PC-3 prostate = test system: PC-3 prostate
A549 NSCLC = test system: A549 NSCLC
SN12C renal = test system: SN12C renal
ACHN renal = test system: ACHN renal
DU-145 prostate = test system: DU-145 prostate
MCF7 breast = test system: MCF7 breast
NCI-H522 lung = test system: NCI-H522 lung
RXF 393 renal = test system: RXF 393 renal
CAKI-1 renal = test system: CAKI-1 renal
HS 578T breast = test system: HS 578T breast
SK-OV-3 ovarian = test system: SK-OV-3 ovarian
T-47D breast = test system: T-47D breast
OVCAR-5 ovarian = test system: OVCAR-5 ovarian
OVCAR-8 ovarian = test system: OVCAR-8 ovarian
OVCAR-4 ovarian = test system: OVCAR-4 ovarian
KM12 colon = test system: KM12 colon
MALME-3M melanoma = test system: MALME-3M melanoma
HT29 colon = test system: HT29 colon
SF-539 CNS = test system: SF-539 CNS
NCI-H460 lung = test system: NCI-H460 lung
TK-10 renal = test system: TK-10 renal
HCT-116 colon = test system: HCT-116 colon
COLO 205 colon = test system: COLO 205 colon
SNB-75 CNS = test system: SNB-75 CNS
NCI-H226 lung = test system: NCI-H226 lung
HCC-2998 colon = test system: HCC-2998 colon
U251 CNS = test system: U251 CNS
RPMI-8226 leukemia = test system: RPMI-8226 leukemia
NCI-H23 lung = test system: NCI-H23 lung
A498 renal = test system: A498 renal
HOP-92 NSCLC = test system: HOP-92 NSCLC
BT-549 breast = test system: BT-549 breast
SF-295 CNS = test system: SF-295 CNS
HOP-62 NSCLC = test system: HOP-62 NSCLC
UACC-62 melanoma = test system: UACC-62 melanoma
SF-268 CNS = test system: SF-268 CNS
786-0 renal = test system: 786-0 renal
M14 melanoma = test system: M14 melanoma
HCT-15 colon = test system: HCT-15 colon
SK-MEL-2 melanoma = test system: SK-MEL-2 melanoma
IGROV1 ovarian = test system: IGROV1 ovarian
LOX IMVI melanoma = test system: LOX IMVI melanoma

## CN1CCC(n2cnc(-c3ccc(F)cc3)c2-c2ccnc(N)n2)CC1
MDA-MB-468 breast
  GI50: 3320 nM
  TGI: 21.1 µM

## O=C(Nc1cccc(Nc2ncc(Br)c(NCCc3cnc[nH]3)n2)c1)N1CCCC1
MDA-MB-468 breast
  GI50: 637 nM
  TGI: 9.09 µM

## CCOP(=O)(OCC)OC[C@]12CC[C@@H](C)[C@H](C)C1C1=CC[C@@H]3[C@@]4(C)CCCNC(C)(C)[C@@H]4CC[C@@]3(C)[C@]1(C)CC2 (some centres undefined)
MDA-MB-468 breast
  GI50: 1390 nM
  TGI: 2.91 µM

## CC(=O)Oc1ccccc1C(=O)/C=C/c1cccc([N+](=O)[O-])c1
MDA-MB-468 breast
  GI50: 2030 nM
  TGI: 4 µM

## O=[N+]([O-])c1cc(S(=O)(=O)Oc2ccccc2)ccc1Cl
MDA-MB-468 breast
  GI50: 1830 nM
  TGI: 3.64 µM

## COc1ccc(-c2oc3cc(O)cc(O)c3c(=O)c2OC)cc1O
MDA-MB-468 breast
  GI50: 565 nM
  TGI: 3.45 µM

## Cc1nc2ccccc2c(/C=C/c2ccc(Br)cc2)c1C(=O)/C=C/c1ccccc1
MDA-MB-468 breast
  GI50: 1980 nM
  TGI: 4.2 µM

## CC1OC(O[C@H]2/C=C/C=C/C=C/C=C/C=C/C=C/C=C/[C@H](C)[C@@H](O)[C@@H](C)[C@H](C)OC(=O)CC(O)CC(O)CCC(O)C(O)CC(O)C[C@]3(O)C[C@H](O)C(C(=O)O)C(C2)O3)C(O)[C@H](N)C1O (some centres undefined)
MDA-MB-468 breast
  GI50: 14900 nM
  TGI: 32.4 µM

## COc1cc2c(c(OC)c1OC)-c1ccc(SC)c(=O)cc1[C@@H](NC1OC(CO)C(O)C(O)C1O)CC2 (some centres undefined)
MDA-MB-468 breast
  GI50: 34.3 nM
  TGI: > 100 µM

## CC(C)=CCC/C(C)=C/CC/C(C)=C/CC/C=C(\C)CC/C=C(\C)CCC(=O)Nc1ccn(C2OC(CO)C(O)C2(F)F)c(=O)n1 (centres undefined)
MDA-MB-468 breast
  GI50: 185 nM
  TGI: 35.8 µM

## CCN1C(=O)N(CC)C2C1NN=c1s/c(=C3\C(=O)N(CCc4ccccc4)c4ccccc43)c(=O)n12 (centres undefined)
MDA-MB-468 breast
  GI50: 338 nM
  TGI: 2.37 µM

## N#CN1CC[C@H](C(=O)Nc2ncc(-c3ccncc3)s2)C1
MDA-MB-468 breast
  GI50: < 15.6 nM
  TGI: < 0.0282 µM

## COc1cc(/C=C/[N+](=O)[O-])cc(Br)c1OC
MDA-MB-468 breast
  GI50: 1590 nM
  TGI: 3.28 µM

## Cc1cccc(NC(=O)c2sc3nc4c(cc3c2N)CN(Cc2ccccc2)CC4)c1C
MDA-MB-468 breast
  GI50: 151 nM
  TGI: 11.6 µM

## CCCCCn1sc(=O)n(Cc2ccc(CNC(=O)OCc3ccc4cccc(O)c4n3)cc2)c1=O
MDA-MB-468 breast
  GI50: 1710 nM
  TGI: 3.56 µM

## COc1ccc(OC)c(Cn2cc3c(c2)-c2oncc2CC3)c1
MDA-MB-468 breast
  GI50: 1200 nM
  TGI: 4.37 µM

## OC(c1cc2cc(Cl)c(Cl)cc2c2cc(C(F)(F)F)ccc12)C1CCCCN1 (centres undefined)
MDA-MB-468 breast
  GI50: 1580 nM
  TGI: 2.94 µM

## Cc1c(C2=C(c3cn(C)c4ccccc34)C(=O)NC2=O)c2ccccc2n1C
MDA-MB-468 breast
  GI50: 921 nM
  TGI: > 22.5 µM

## CCN(CCO)CC(C)Nc1ccc([N+](=O)[O-])c2sc3ccccc3c(=O)c12 (centres undefined)
MDA-MB-468 breast
  GI50: 1680 nM
  TGI: 7.29 µM

## COc1cc(/C=C/C(=O)c2nnn(-c3ccc(Cl)cc3)c2C)cc(OC)c1OC
MDA-MB-231 breast
  GI50: 3.48 µM
  TGI: > 100 µM
SNB-19 CNS
  GI50: 14.7 µM
  TGI: > 100 µM
MDA-MB-468 breast
  GI50: 3380 nM
  TGI: > 100 µM
PC-3 prostate
  GI50: 3.53 µM
  TGI: > 100 µM
A549 NSCLC
  GI50: 6.11 µM
  TGI: > 100 µM
SN12C renal
  GI50: 4.15 µM
  TGI: > 100 µM
ACHN renal
  GI50: 5.82 µM
  TGI: > 100 µM
DU-145 prostate
  GI50: 3.62 µM
  TGI: > 100 µM
MCF7 breast
  GI50: 3.23 µM
  TGI: > 100 µM
NCI-H522 lung
  GI50: 4.06 µM
  TGI: > 100 µM
RXF 393 renal
  GI50: 6.39 µM
  TGI: > 100 µM
CAKI-1 renal
  GI50: 4.46 µM
  TGI: > 100 µM
HS 578T breast
  GI50: 5.47 µM
  TGI: > 100 µM
SK-OV-3 ovarian
  GI50: > 100 µM
  TGI: > 100 µM
T-47D breast
  GI50: > 100 µM
  TGI: > 100 µM
OVCAR-5 ovarian
  GI50: > 100 µM
  TGI: > 100 µM
OVCAR-8 ovarian
  GI50: 4.15 µM
  TGI: > 100 µM
OVCAR-4 ovarian
  GI50: 4.25 µM
  TGI: > 100 µM
KM12 colon
  GI50: 8.53 µM
  TGI: > 100 µM
MALME-3M melanoma
  GI50: 7.35 µM
  TGI: > 100 µM
HT29 colon
  GI50: 4.1 µM
  TGI: > 100 µM
SF-539 CNS
  GI50: > 100 µM
  TGI: > 100 µM
NCI-H460 lung
  GI50: 3.59 µM
  TGI: > 100 µM
TK-10 renal
  GI50: > 100 µM
  TGI: > 100 µM
HCT-116 colon
  GI50: 3.55 µM
  TGI: > 100 µM
COLO 205 colon
  GI50: > 100 µM
  TGI: > 100 µM
SNB-75 CNS
  GI50: 2830 nM
  TGI: > 100 µM
NCI-H226 lung
  GI50: 7.53 µM
  TGI: > 100 µM
HCC-2998 colon
  GI50: > 100 µM
  TGI: > 100 µM
U251 CNS
  GI50: 4.1 µM
  TGI: > 100 µM
RPMI-8226 leukemia
  GI50: 2220 nM
  TGI: > 100 µM
NCI-H23 lung
  GI50: 6.2 µM
  TGI: > 100 µM
A498 renal
  GI50: > 100 µM
  TGI: > 100 µM
HOP-92 NSCLC
  GI50: 2550 nM
  TGI: 23.6 µM
BT-549 breast
  GI50: 4.23 µM
  TGI: 84.3 µM
SF-295 CNS
  GI50: 41.4 µM
  TGI: > 100 µM
HOP-62 NSCLC
  GI50: 11 µM
  TGI: > 100 µM
UACC-62 melanoma
  GI50: 5.59 µM
  TGI: > 100 µM
SF-268 CNS
  GI50: 20.9 µM
  TGI: > 100 µM
786-0 renal
  GI50: 8.67 µM
  TGI: 62 µM
M14 melanoma
  GI50: 3.59 µM
  TGI: > 100 µM
HCT-15 colon
  GI50: 3.23 µM
  TGI: > 100 µM
SK-MEL-2 melanoma
  GI50: > 100 µM
  TGI: > 100 µM
IGROV1 ovarian
  GI50: > 100 µM
  TGI: > 100 µM
LOX IMVI melanoma
  GI50: 3.06 µM
  TGI: > 100 µM

## CC(C)(C)CN1CCn2c(nc3c(N)nccc32)S1
MDA-MB-468 breast
  GI50: 5380 nM
  TGI: 50.3 µM

## Cn1cc(-c2nonc2-c2cn(C)c3ccccc23)c2ccccc21
MDA-MB-468 breast
  GI50: 492 nM
  TGI: > 32.4 µM

## COc1ccc2c(c1)OC1=C(C(=O)OC1)C2c1cc(OC)c2c(c1)OCO2 (centres undefined)
MDA-MB-468 breast
  GI50: 26.4 nM
  TGI: 0.0987 µM

## O=c1[nH]cnc2c(C3NC(CO)C(O)C3O)c[nH]c12 (centres undefined)
MDA-MB-468 breast
  GI50: > 100000 nM
  TGI: > 100 µM

## COC(=O)c1nc(-c2ccccc2)oc1S(=O)(=O)n1nc(C)cc1N
MDA-MB-468 breast
  GI50: 3980 nM
  TGI: 16.9 µM

## COc1ccc(C(=O)N2c3ccccc3Sc3ccccc32)c(OC)c1
MDA-MB-468 breast
  GI50: 327 nM
  TGI: 56.1 µM

## CC1(C)N=C(N)N=C(N)N1c1ccc(CCCCc2ccc(S(=O)(=O)F)cc2)c(Cl)c1
MDA-MB-468 breast
  GI50: 281 nM
  TGI: 10.8 µM

## CCCCn1c(=O)c2c(nc3n2CCCN3CCc2ccc(OCC(=O)NCCN(CC)CC)cc2)n(CCCC)c1=O
MDA-MB-468 breast
  GI50: 1730 nM
  TGI: 6.86 µM

## COc1ccc(/C=N/NC(=O)Cn2c(-c3ccc(S(C)(=O)=O)cc3)nc3cc(Cl)ccc32)cc1
MDA-MB-468 breast
  GI50: 1510 nM
  TGI: 9.14 µM

## CCN(Cc1ccc(Cl)s1)c1ccc(CO)c(Cl)c1
MDA-MB-468 breast
  GI50: 19.3 nM
  TGI: 0.0526 µM

## COc1ccc(C2[C@@H](Cl)C(=O)N2c2cc(OC)c(OC)c(OC)c2)cc1Cl (some centres undefined)
MDA-MB-468 breast
  GI50: 201 nM
  TGI: 0.963 µM

## O=C1NC(=O)C(c2cccc(Cl)c2)=C1Nc1ccc(O)c(Cl)c1
MDA-MB-468 breast
  GI50: 5940 nM
  TGI: > 20.3 µM

## CN1CCN(Cc2ccc(NC(=O)c3[nH]ncc3Nc3ncnc4sc5c(c34)CCCC5)cc2)CC1
MDA-MB-468 breast
  GI50: 476 nM
  TGI: 2.3 µM

## CCN1C(=O)N(CC)C2C1NN=c1s/c(=C\c3ccccc3Br)c(=O)n12 (centres undefined)
MDA-MB-468 breast
  GI50: 35.2 nM
  TGI: 1.15 µM

## CC(C)(C)c1ccc(C(=O)Nc2sc3c(c2C(N)=O)CCC(=O)C3)cc1
MDA-MB-468 breast
  GI50: 506 nM
  TGI: 2.09 µM

## COc1ccc2cc(-c3c(-c4ccncc4)nc(-c4ccc(S(C)=O)cc4)n3C)ccc2c1 (centres undefined)
MDA-MB-468 breast
  GI50: 3110 nM
  TGI: > 25 µM

## C[C@@H]1O[C@@H](O[C@H]2CC[C@@]3(C)[C@H](CCC4[C@@H]3C(O)C[C@]3(C)[C@@H](c5ccc(=O)oc5)CC[C@]43O)C2)[C@H](O)[C@H](O)[C@H]1O (some centres undefined)
MDA-MB-468 breast
  GI50: 5.94 nM
  TGI: 0.0121 µM

## O=C(Oc1cccnc1)c1ccsc1Nc1ccnc(C(F)(F)F)c1
MDA-MB-468 breast
  GI50: 1800 nM
  TGI: 4.4 µM
